From US8703483B2, “Reagents and methods for using human embryonic stem cells to evaluate toxicity of pharmaceutical compounds and other chemicals” (Wisconsin Alumni Research Foundation, priority 2006, dated 2014)

Test system: human embryonic stem cells
Experiment: Metabolite profiling (LC/ESI-TOF mass spectrometry) of extracellular media of hESCs treated with alcohol
Format: cell-based
Conditions: ETOH 0.3, 24 H
Description: Binned masses were annotated in silico by querying the neutral masses in several different databases. These databases included Metlin, Biological Magnetic Resonance Data Bank (BMRB), NIST Chemistry WebBook, and the Human Metabolome Database. A mass was considered identified when its neutral mass was within 10 ppm of a known compound annotated in one of the databases listed above.

`CCO` [ETOH] was tested, and the “Fold: 5-Methoxytryptophan, mass 234.125, RT 47.0879” value was −1.632 fold, the “Fold: GABA analogue, mass 171.1244, RT 26.70635” value was 3.755 fold and the “Fold: Hexylamine, mass 101.1201, RT 10.21225” value was 2.192 fold. The “Fold: N-Methyl-2-pyrrolidinone, mass 99.0689, RT 15.48433” value was 1.468 fold, the “Fold: Unknown, mass 83.0372, RT 85.57399” value was 2.472 fold and the “Fold: Unknown, mass 99.1043, RT 52.01225” value was 3.331 fold. The “Fold: Unknown, mass 130.9541, RT 88.64043” value was 2.025 fold, the “Fold: Unknown, mass 148.0052, RT 3.958833” value was −1.73 fold and the “Fold: Unknown, mass 153.0811, RT 27.80141” value was −1.6976 fold. For the same compound, the “Fold: Unknown, mass 161.0805, RT 14.22357” value was −6.435 fold, the “Fold: Unknown, mass 178.5546, RT 28.52393” value was −2.764 fold and the “Fold: Unknown, mass 194.0836, RT 22.61355” value was −1.703 fold. The “Fold: Unknown, mass 222.0401, RT 27.57188” value was −2.112 fold, the “Fold: Unknown, mass 223.119, RT 13.6845” value was −2.74 fold and the “Fold: Unknown, mass 229.2025, RT 32.9941” value was −1.377 fold. The “Fold: Unknown, mass 237.0041, RT 3.673694” value was 2.989 fold, the “Fold: Unknown, mass 239.9592, RT 5.176232” value was 1.64 fold and the “Fold: Unknown, mass 267.2543, RT 40.75868” value was −1.496 fold. The “Fold: Unknown, mass 271.9364, RT 4.86619” value was 4.07 fold, the “Fold: Unknown, mass 275.1193, RT 22.86183” value was −2.237 fold and the “Fold: Unknown, mass 288.2632, RT 75.76147” value was 1.969 fold. For the same compound, the “Fold: Unknown, mass 294.1531, RT 24.21651” value was −1.892 fold, the “Fold: Unknown, mass 298.1537, RT 66.35884” value was 3.758 fold and the “Fold: Unknown, mass 299.1929, RT 19.66398” value was −1.571 fold. For the same compound, the “Fold: Unknown, mass 303.8875, RT 4.954547” value was 2.07 fold, the “Fold: Unknown, mass 313.199, RT 44.09424” value was 2.292 fold and the “Fold: Unknown, mass 324.1666, RT 30.19245” value was −1.593 fold. For the same compound, the “Fold: Unknown, mass 337.2012, RT 8.542672” value was 1.287 fold, the “Fold: Unknown, mass 340.9252, RT 5.033976” value was −1.836 fold and the “Fold: Unknown, mass 342.1482, RT 68.02448” value was −1.853 fold. The “Fold: Unknown, mass 360.1321, RT 18.50245” value was −2.289 fold, the “Fold: Unknown, mass 362.2787, RT 83.72506” value was −2.542 fold and the “Fold: Unknown, mass 378.2956, RT 41.28494” value was 1.636 fold. For the same compound, the “Fold: Unknown, mass 393.1889, RT 15.90129” value was −1.511 fold, the “Fold: Unknown, mass 440.0284, RT 54.46495” value was 2.51 fold and the “Fold: Unknown, mass 444.2237, RT 51.58546” value was 2.242 fold. For the same compound, the “Fold, Unknown metabolite, Mass 820.8181” value (retention time 4.613879) was −1.851, the “Fold, Unknown metabolite, Mass 711.8344” value (retention time 4.826824) was −2.256 and the “Fold, Unknown metabolite, Mass 913.8074” value (retention time 5.217833) was −1.885. For the same compound, the “Fold, Unknown metabolite, Mass 888.8041” value (retention time 5.259716) was 1.222, the “Fold, Unknown metabolite, Mass 922.0048” value (retention time 5.387775) was −2.755 and the “Fold, Unknown metabolite, Mass 555.8505” value (retention time 5.742094) was −1.518. The “Fold, metabolite Ethanesulfonic acid, Mass 579.2519” value (retention time 5.903169) was −1.48, the “Fold, metabolite Oxidized glutathione, Mass 612.1509” value (retention time 8.056862) was −1.595 and the “Fold, Unknown metabolite, Mass 485.204” value (retention time 10.8217) was 2.038. For the same compound, the “Fold, Unknown metabolite, Mass 482.1942” value (retention time 10.82859) was −1.528, the “Fold, Unknown metabolite, Mass 666.3836” value (retention time 16.3338) was −1.371 and the “Fold, metabolite L-Urobilinogen, Mass 596.3543” value (retention time 25.14927) was 1.835. The “Fold, Unknown metabolite, Mass 464.225” value (retention time 25.3287) was −1.717, the “Fold, Unknown metabolite, Mass 455.2052” value (retention time 28.27806) was −2.509 and the “Fold, Unknown metabolite, Mass 447.2509” value (retention time 29.86415) was 2.103. For the same compound, the “Fold, Unknown metabolite, Mass 444.2789” value (retention time 30.05687) was −1.835, the “Fold, Unknown metabolite, Mass 707.3933” value (retention time 30.43889) was −1.792 and the “Fold, Unknown metabolite, Mass 466.2921” value (retention time 30.46172) was −1.959. The “Fold, Unknown metabolite, Mass 488.305” value (retention time 30.83472) was −2.185, the “Fold, Unknown metabolite, Mass 488.8071” value (retention time 30.88032) was −1.92 and the “Fold, Unknown metabolite, Mass 510.3182” value (retention time 31.20706) was −2.264. The “Fold, Unknown metabolite, Mass 510.8202” value (retention time 31.22083) was −2.045, the “Fold, Unknown metabolite, Mass 523.8187” value (retention time 31.53434) was −2.173 and the “Fold, Unknown metabolite, Mass 591.3789” value (retention time 31.54325) was −1.982. The “Fold, Unknown metabolite, Mass 532.8335” value (retention time 31.58889) was −2.169, the “Fold, Unknown metabolite, Mass 554.3444” value (retention time 31.8519) was −2.37 and the “Fold, Unknown metabolite, Mass 554.8471” value (retention time 31.891) was −2.297. The “Fold, Unknown metabolite, Mass 576.3582” value (retention time 32.15777) was −2.209, the “Fold, Unknown metabolite, Mass 541.3274” value (retention time 32.24719) was −2.123 and the “Fold, Unknown metabolite, Mass 611.871” value (retention time 32.70236) was −2.192. For the same compound, the “Fold, Unknown metabolite, Mass 620.8861” value (retention time 32.73907) was −2.321, the “Fold, Unknown metabolite, Mass 642.397” value (retention time 32.95522) was −2.211 and the “Fold, Unknown metabolite, Mass 677.9101” value (retention time 33.48766) was −2.647. The “Fold, Unknown metabolite, Mass 463.2914” value (retention time 33.5733) was −1.665, the “Fold, Unknown metabolite, Mass 466.615” value (retention time 33.68894) was −3.279 and the “Fold, Unknown metabolite, Mass 774.4767” value (retention time 34.33545) was −2.342. The “Fold, Unknown metabolite, Mass 521.9924” value (retention time 34.35986) was −1.584, the “Fold, Unknown metabolite, Mass 751.4193” value (retention time 35.028) was −1.703 and the “Fold, metabolite Neu5Acalpha2-3Galbeta1-4Glcbeta-Sp, Mass 702.2497” value (retention time 40.84822) was 1.283. The “Fold, Unknown metabolite, Mass 449.2611” value (retention time 44.98056) was −3.471, the “Fold, Unknown metabolite, Mass 467.3804” value (retention time 46.51446) was −2.135 and the “Fold, Unknown metabolite, Mass 518.3914” value (retention time 46.57666) was −2.707. The “Fold, Unknown metabolite, Mass 539.4374” value (retention time 51.52268) was −1.93, the “Fold, Unknown metabolite, Mass 446.0431” value (retention time 54.8719) was −2.221 and the “Fold, Unknown metabolite, Mass 707.4296” value (retention time 56.18269) was −2.434. The “Fold, Unknown metabolite, Mass 611.4952” value (retention time 56.3513) was −1.9811, the “Fold, Unknown metabolite, Mass 765.5211” value (retention time 69.32865) was 1.884 and the “Fold, Unknown metabolite, Mass 482.3062” value (retention time 72.7735) was −2.618.
